Results as given in paper PMC6268642, “Facile Synthesis and Herbicidal Evaluation of 4H-3,1-Benzoxazin-4-ones and 3H-Quinazolin-4-ones with 2-Phenoxymethyl Substituents” (Molecules, 2012).
pIC50: −log10 of the molar value. Like-named read-outs stand apart in the source and are kept apart here.

How the values were obtained:
rape Brassica napus [1] = experiment: Petri dish culture, growth inhibition of root and stalk of rape; type: in vivo; details: 5 days; for inhibition at 1 µg/mL / inhibition at 10 µg/mL: Brassica napus, 120 h
Procedure: (§1) The synthesized compounds were tested for the herbicidal activity on model plants including a monocotyledon (barnyard grass) and a dicotyledon (rape) by the reported Petri dish culture method. The percent inhibitory ratios against the growth of root and stalk of barnyard grass and rape at different dosage concentrations were calculated, and the compounds with appreciable inhibitory potencies are selected and shown in Table 1 and Table 2. Several features of the inhibitory activities can be derived. First, all the compounds have stronger inhibition against the growth of the dicotyledon rape than against the monocotyledon barnyard grass, showing appreciable selectivity.
(§2) The herbicidal activity was examined for the growth inhibition effect of the dicotyledon rape Brassica napus and the monocotyledon barnyard grass Echinochloa crusgalli, using the standard Petri dish test and the pre-emergence treatment procedure. […] Nine mL of the solution was added in a Petri dish of 9 cm diameter and two pieces of filter paper were placed on the dish bottom. Twenty seeds each of rape and barnyard grass were placed on the filter paper. The covered Petri dish was transferred into an artificial climate incubator (MGC-400H, Shantou Keyi Co., Ltd., China), where the conditions were controlled at temperature 23 ± 1 °C, humidity 60 ± 5%, light intensity 10 Klux, and photoperiod 12 h/day. The incubation was continued for 5 days, then the lengths of 10 roots and 10 stems for each type of plant were measured and the mean values were calculated. The percent inhibitory ratios were calculated relative to control plants exposing to distilled water instead of the compound solution.

rape Brassica napus [2] = experiment: Concentration-dependent root elongation inhibition of rape (IC50); type: in vivo; details: for pIC50: rape root elongation, Table 3, read-out: IC50 for the root elongation inhibition of rape
Procedure: Several representative compounds selected from the 2-phenoxy-4H-3,1-benzoxazin-4-one and 2-phenoxy-3H-quinazolin-4-one groups were tested their concentration dependant activities and the half maximal inhibitory concentrations (IC50 values) are shown in Table 3. Obviously, the 2-phenoxy-4H-3,1-benzoxazin-4-ones 3m and 3o have IC50 values near to that of the commercial herbicidal 2,4-D. More importantly, these molecules consist of 2-phenoxymethyl group with halo substituents both at the 2- and 4- positions of the benzene ring, a similar pattern to the commercial hormone herbicides 2,4-D, clomeprop, and 2,4-DB, as well as the ACCase herbicide diclofop-methyl. […] Moreover, if no halo group exists on the benzene ring, the activity will decrease dramatically. On the other hand, the substructure 4H-3,1-benzoxazin-4-one in this work and the carboxylic group in the commercial phenoxyethanoic and phenoxypropionic acid herbicides play also a crucial role in the contribution to the activities of the compounds, meaning they are active substructures.
The herbicidal activity was examined for the growth inhibition effect of the dicotyledon rape Brassica napus and the monocotyledon barnyard grass Echinochloa crusgalli, using the standard Petri dish test and the pre-emergence treatment procedure. Briefly, the compounds to be tested were dissolved in DMF and emulsified with Tween 80, and the solutions were diluted with water to the concentrations of […], respectively. Nine mL of the solution was added in a Petri dish of 9 cm diameter and two pieces of filter paper were placed on the dish bottom. Twenty seeds each of rape and barnyard grass were placed on the filter paper. The covered Petri dish was transferred into an artificial climate incubator (MGC-400H, Shantou Keyi Co., Ltd., China), where the conditions were controlled at temperature 23 ± 1 °C, humidity 60 ± 5%, light intensity 10 Klux, and photoperiod 12 h/day. The incubation was continued for 5 days, then the lengths of 10 roots and 10 stems for each type of plant were measured and the mean values were calculated. The percent inhibitory ratios were calculated relative to control plants exposing to distilled water instead of the compound solution.

[3] = tested on: barnyard grass Echinochloa crusgalli; experiment: Petri dish culture, growth inhibition of root and stalk of barnyard grass; type: in vivo; details: 5 days; for inhibition at 1 µg/mL / inhibition at 10 µg/mL: Echinochloa crus-galli, 120 h
Procedure: as §1, §2

[4] = 1 mg/L, root growth, read-out: Relative inhibition, root
[5] = 1 mg/L, stalk growth, read-out: Relative inhibition, stalk
[6] = 10 mg/L, root growth, read-out: Relative inhibition, root
[7] = 10 mg/L, stalk growth, read-out: Relative inhibition, stalk

| Molecule | Relative inhibition, root (rape Brassica napus [1]; 1 mg/L, root growth) | Relative inhibition, stalk (rape Brassica napus [1]; 1 mg/L, stalk growth) | Relative inhibition, root (rape Brassica napus [1]; 10 mg/L, root growth) | Relative inhibition, stalk (rape Brassica napus [1]; 10 mg/L, stalk growth) | pIC50 (rape Brassica napus [2]) | Relative inhibition, root ([3]; 1 mg/L, root growth) | Relative inhibition, stalk ([3]; 1 mg/L, stalk growth) | Relative inhibition, root ([3]; 10 mg/L, root growth) | Relative inhibition, stalk ([3]; 10 mg/L, stalk growth) | herbicidal activity (control experiment) (rape Brassica napus [2]; compound without the 4H-3,1-benzoxazin-4-one substructure, plant not stated) | melting point | inhibition at 1 µg/mL (rape Brassica napus [1]; [4]) | inhibition at 1 µg/mL (rape Brassica napus [1]; [5]) | inhibition at 10 µg/mL (rape Brassica napus [1]; [6]) | inhibition at 10 µg/mL (rape Brassica napus [1]; [7]) | pIC50 (rape Brassica napus [2]; Brassica napus) | inhibition at 1 µg/mL [3, 4] | inhibition at 1 µg/mL [3, 5] | inhibition at 10 µg/mL [3, 6] | inhibition at 10 µg/mL [3, 7] |
| --- | --- | --- | --- | --- | --- | --- | --- | --- | --- | --- | --- | --- | --- | --- | --- | --- | --- | --- | --- | --- |
| 3-Amino-7-chloro-2-((2,4-dichlorophenoxy)methyl)-3H-quinazolin-4-one [4i] | 93.6% | 92.3% | 98.2% | 95.7% | 4.56 | 24.3% | −7.2% | 68.5% | 38.1% |  |  |  |  |  |  |  |  |  |  |  |
| CCOc1ccc(Cl)cc1Cl [2,4-dichlorophenyl ethyl ether, reference compound] |  |  |  |  |  |  |  |  |  | loses nearly all of its herbicidal activity |  |  |  |  |  |  |  |  |  |  |
| O=c1oc(COc2ccc(Cl)cc2)nc2ccc(Cl)cc12 [3i, 6-Chloro-2-((4-chlorophenoxy)methyl)-4H-3,1-benzoxazin-4-one] |  |  |  |  |  |  |  |  |  |  | 153.2 to 154.6 °C | 91.4% | 40.2% | 100% | 82.1% | 4.65 | 55.3% | -7.3% | 87.8% | 13.2% |
| COc1cc2nc(COc3ccc(Cl)cc3Cl)oc(=O)c2cc1OC [3q, 2-((2,4-Dichlorophenoxy)methyl)-6,7-dimethoxy-4H-3,1-benzoxazin-4-one] |  |  |  |  |  |  |  |  |  |  | 161.9 to 163.2 °C | 58.3% | 14.8% | 100% | 85.2% | 3.85 | 35.5% | -7.4% | 51.9% | -52.8% |
| O=c1oc(COc2ccc(Cl)cc2Cl)nc2ccccc12 [3m, 2-((2,4-Dichlorophenoxy)methyl)-4H-3,1-benzoxazin-4-one] |  |  |  |  |  |  |  |  |  |  | 118.5 to 119.3 °C | 96.3% | 77.7% | 100% | 93.8% | 4.99 | 38.3% | -22.7% | 100% | -0.6% |
| Nn1c(COc2ccc(Cl)cc2Cl)nc2ccccc2c1=O [4f, 3-Amino-2-((2,4-dichlorophenoxy)methyl)-3H-quinazolin-4-one] |  |  |  |  |  |  |  |  |  |  | 214.6 to 215.7 °C | 65.6% | 48.1% | 73.4% | 48.1% | 3.65 | 35% | -5% | 22.2% | -6.6% |
| Cn1c(COc2ccc(Cl)cc2Cl)nc2ccccc2c1=O [4p, 2-((2,4-Dichlorophenoxy)methyl)-3-methy-3H-quinazolin-4-one] |  |  |  |  |  |  |  |  |  |  | 172.1 to 173.4 °C | 4.5% | 27.1% | 21.2% | 29.2% |  | 2.5% | -10.9% | 29.4% | -47.3% |
| O=c1oc(COc2ccccc2)nc2ccc(Cl)cc12 [3c, 6-Chloro-2-(phenoxymethyl)-4H-3,1-benzoxazin-4-one] |  |  |  |  |  |  |  |  |  |  | 113.1 to 115.2 °C | 45.4% | 26.7% | 83.9% | 64.6% |  | 23.7% | 0.3% | 62.6% | 46.7% |
| COc1cc2nc(COc3ccccc3)oc(=O)c2cc1OC [3f, 6,7-Dimethoxy-2-(phenoxymethyl)-4H-3,1-benzoxazin-4-one] |  |  |  |  |  |  |  |  |  |  | 132.1 to 134.3 °C | 94.9% | 32.9% | 71.1% | 63.3% |  | 35.5% | 32% | 63% | 46.7% |
| Cn1c(COc2ccc(Cl)cc2)nc2cc(Cl)ccc2c1=O [4m, 7-Chloro-2-((4-chlorophenoxy)methyl)-3-methyl-3H-quinazolin-4-one] |  |  |  |  |  |  |  |  |  |  | 202.4 to 203.9 °C | 26.2% | 1.5% | 27.9% | -0.5% |  | 14.8% | 7.5% | 29.2% | 14.9% |
| O=c1oc(COc2ccc(F)cc2)nc2cc(Cl)ccc12 [3u, 7-Chloro-2-((4-fluorophenoxy)methyl)-4H-3,1-benzoxazin-4-one] |  |  |  |  |  |  |  |  |  |  | 123.6 to 124.9 °C | 92.7% | 65.2% | 99% | 92.2% |  | 61.8% | -7.3% | 96.7% | 39% |
| Cc1ccc2nc(COc3ccc(Cl)cc3)n(N)c(=O)c2c1 [4d, 3-Amino-2-((4-chlorophenoxy)methyl)-6-methyl-3H-quinazolin-4-one] |  |  |  |  |  |  |  |  |  |  | 177.3 to 178.6 °C | 26.4% | -14.7% | 31.3% | -3.4% |  | 16.3% | 11.9% | 35.6% | 7.4% |
| Nn1c(COc2ccc(Cl)cc2)nc2cc(Cl)ccc2c1=O [4c, 3-Amino-7-chloro-2-((4-chlorophenoxy)methyl)-3H-quinazolin-4-one] |  |  |  |  |  |  |  |  |  |  | 129.5 to 131.6 °C | 27.7% | -9.3% | 69.7% | 41.6% |  | 10.4% | 1.4% | 42.1% | 17.9% |
| O=c1oc(COc2ccccc2)nc2ccccc12 [3a, 2-(Phenoxymethyl)-4H-3,1-benzoxazin-4-one] |  |  |  |  |  |  |  |  |  |  | 87.9 to 92.1 °C | 71.2% | 27% | 89.1% | 79.4% |  | 19.3% | -29.6% | 64.8% | 26.9% |
| Nn1c(COc2ccc(Cl)cc2Cl)nc2cccc(Cl)c2c1=O [4g, 3-Amino-5-chloro-2-((2,4-dichlorophenoxy)methyl)-3H-quinazolin-4-one] |  |  |  |  |  |  |  |  |  |  | 201.5 to 202 °C | 5.7% | 10% | 17.5% | 44.9% |  | 11.8% | -5.9% | 25.8% | -1.8% |
| O=c1oc(COc2ccc(F)cc2)nc2ccccc12 [3r, 2-((4-Fluorophenoxy)methyl)-4H-3,1-benzoxazin-4-one] |  |  |  |  |  |  |  |  |  |  | 112.5 to 114.6 °C | 81.4% | 55.3% | 99.6% | 87% |  | 62.6% | 42.8% | 96.8% | 57.8% |
